Starred links: 1 amine or outer side, 2 acyl side, 3 side chain; linkers in the order of their positions; H or OH if unused. Positions of bridges follow the written chain, without caps; N, C: chain ends. Non-standard residues stand in square brackets, D forms with d. Residues, ends and D or L forms follow the SMILES beside them. Groups on a side chain read outwards from the residue. *: point of attachment. εLys(α-Octadecanedioyl) = O=C(O)CCCCCCCCCCCCCCCCC(=O)N[C@@H](CCCCN*)C(=O)O; X5 = O=C(O)CCCCCCCCCCCCCCCCC(=O)N[C@@H](CCN*)C(=O)O; Trp(7-Me) = Cc1cccc2c(C[C@H](N)C(=O)O)c[nH]c12; d(γGlu) = O=C(O)[C@@H](CCC(=O)[*:2])N[*:1]; C18 diacid = O=C(O)CCCCCCCCCCCCCCCCC(=O)*; C16 diacid = O=C(O)CCCCCCCCCCCCCCC(=O)*; γGlu = O=C(O)[C@H](CCC(=O)[*:2])N[*:1]; 2Nal = N[C@@H](Cc1ccc2ccccc2c1)C(=O)O; AEF = NCCOc1ccc(C[C@H](N)C(=O)O)cc1; PEG6 = NCCOCCOCCOCCOCCOCCOCCC(=O)O; Palmitoyl = CCCCCCCCCCCCCCCC(=O)*; 3Pal = N[C@@H](Cc1cccnc1)C(=O)O; NMeK = CN[C@@H](CCCCN)C(=O)O; Pen = CC(C)(S)[C@H](N)C(=O)O; Thp = NC1(C(=O)O)CCOCC1; AEEA = NCCOCCOCC(=O)O; Sar = CNCC(=O)O

The values that follow come from patent US12478617B2, “Lipidated peptide inhibitors of interleukin-23 receptor” (JANSSEN BIOTECH, INC., priority 2021, dated 2025).

The assay concerns the target T1, IL-23R (Homo sapiens, UniProt Q5VWK5).
T1 construct: HEK293 cells containing IL-23R, IL-12RP31 and a firefly luciferase reporter gene driven by a STAT-inducible promoter (Promega); host or cells: HEK293
T1 sequence (Q5VWK5 24-629): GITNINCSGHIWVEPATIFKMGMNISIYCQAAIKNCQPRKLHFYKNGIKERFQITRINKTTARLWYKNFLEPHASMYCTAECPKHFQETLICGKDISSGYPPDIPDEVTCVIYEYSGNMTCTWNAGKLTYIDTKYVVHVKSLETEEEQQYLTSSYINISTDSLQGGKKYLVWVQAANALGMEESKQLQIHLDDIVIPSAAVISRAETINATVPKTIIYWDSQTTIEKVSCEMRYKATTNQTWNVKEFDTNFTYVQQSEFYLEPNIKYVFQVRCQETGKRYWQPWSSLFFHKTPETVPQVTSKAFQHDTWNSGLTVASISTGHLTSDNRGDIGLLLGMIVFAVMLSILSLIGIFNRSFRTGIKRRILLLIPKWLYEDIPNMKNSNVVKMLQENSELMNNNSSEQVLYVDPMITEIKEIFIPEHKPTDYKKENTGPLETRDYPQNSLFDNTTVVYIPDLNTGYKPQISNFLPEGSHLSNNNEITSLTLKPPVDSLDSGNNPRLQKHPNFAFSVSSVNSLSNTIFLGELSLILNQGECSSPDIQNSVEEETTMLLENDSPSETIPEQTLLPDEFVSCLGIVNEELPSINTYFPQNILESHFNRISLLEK
The experiment in a line: IL23R Reporter Assay. It counts as cell-based. From the text:
IL-23 binding to IL-23 receptors results in the activation of the Signal Transducer and Activator of Transcription 3 (STAT3) by phosphorylation and downstream signaling events. Accordingly. the ability of the inhibitors described herein to block IL-23 action can be assessed by monitoring the status of STAT3 activation in response to IL-23. This may be accomplished in reporter cell assays or in intact cells such as peripheral blood mononuclear cells (PBMCs).
Compounds were serially diluted in 100% (v/v) DMSO) and plated using an Echo acoustic dispenser (Labcyte) into 1536-well non-treated black assay plates (Corning #9146). […] After 5 h at 37° C., 5% CO2, 95% relative humidity, cells were placed at 20° C. and treated with BioGlo reagent (Promega) according to the Manufacturer's instructions. Luminescence was measured on a Pherastar FSX (BMG LabTech).
(A reporter such as luciferase makes a cellular process visible.)
By IC50 is commonly meant the concentration that inhibits the measured activity by half. On to `CC(=O)NCCCC[C@@H]1NC(=O)[C@H](Cc2c[nH]c3c(C)cccc23)NC(=O)[C@H]([C@@H](C)O)NC(=O)[C@H](CC(N)=O)NC(=O)[C@@H](NC(C)=O)C(C)(C)SSC(C)(C)[C@@H](C(=O)N[C@@H](Cc2ccc(OCCN)cc2)C(=O)N[C@@H](Cc2ccc3ccccc3c2)C(=O)NC2(C(=O)N[C@@H](CCCCNC(=O)COCCOCCNC(=O)CCOCCOCCOCCOCCOCCOCCNC(=O)CC[C@H](NC(=O)CCCCCCCCCCCCCCCCC(=O)O)C(=O)O)C(=O)N[C@@H](CC(N)=O)C(=O)N[C@@H](Cc3cccnc3)C(=O)N(C)CC(N)=O)CCOCC2)NC1=O` [Example 39, MeCO-Pen*-N-T-7MeW-K(Ac)-Pen*-AEF-2Nal-THP-K(PEG2PEG6gEC18OH)-N-3Pya-Sar-CONH2] (Ac-[Pen]NT[Trp(7-Me)]K(Ac)[Pen][AEF][2Nal][Thp]K([AEEA-PEG6-γGlu-C18 diacid])N[3Pal][Sar]-NH2; disulfide 1-6), for which the IC50 worked out at 0.048 nM.

As for `CCCCCCCCCCCCCCCC(=O)N[C@@H](CCC(=O)NCCOCCOCC(=O)NCCOCCOCC(=O)NCCCC[C@@H]1NC(=O)[C@@H](NC(C)=O)C(C)(C)SSC(C)(C)[C@@H](C(=O)N[C@@H](Cc2ccc(OCCN)cc2)C(=O)N[C@@H](Cc2ccc3ccccc3c2)C(=O)NC2(C(=O)N[C@@H](CCCCNC(C)=O)C(=O)N[C@@H](CC(N)=O)C(=O)N[C@@H](Cc3cccnc3)C(=O)N(C)CC(N)=O)CCOCC2)NC(=O)[C@H](CCCCNC(C)=O)NC(=O)[C@H](Cc2c[nH]c3c(C)cccc23)NC(=O)[C@H]([C@@H](C)O)NC1=O)C(=O)O` [Example 83, MeCO-Pen*-K(PEG2PEG2gEC16)-T-7MeW-K(Ac)-Pen*-AEF-2Nal-THP-K(Ac)-N-3Pya-Sar-CONH2] (Ac-[Pen]K([AEEA-AEEA-γGlu-Palmitoyl])T[Trp(7-Me)]K(Ac)[Pen][AEF][2Nal][Thp]K(Ac)N[3Pal][Sar]-NH2; disulfide 1-6), the IC50 came to 0.052 nM.

`CC(=O)NCCCC[C@@H]1NC(=O)[C@H](Cc2c[nH]c3c(C)cccc23)NC(=O)[C@H]([C@@H](C)O)NC(=O)[C@H](CC(N)=O)NC(=O)[C@@H](NC(=O)[C@@H](CCCNC(=N)N)NC(C)=O)C(C)(C)SSC(C)(C)[C@@H](C(=O)N[C@@H](Cc2ccc(OCCN)cc2)C(=O)N[C@@H](Cc2ccc3ccccc3c2)C(=O)NC2(C(=O)N[C@@H](CCCCNC(C)=O)C(=O)N[C@@H](CC(N)=O)C(=O)N[C@@H](Cc3cccnc3)C(=O)N(C)CC(=O)NCCOCCOCC(=O)NCCOCCOCC(=O)NCC[C@H](NC(=O)CCCCCCCCCCCCCCCCC(=O)O)C(=O)O)CCOCC2)NC1=O` [Example 129, MeCO-r-Pen*-N-T-7MeW-K(Ac)-Pen*-AEF-2Nal-THP-K(Ac)-N-3Pya-Sar-PEG2PEG2gDabC18OH-COOH] (Ac-[dR][Pen]NT[Trp(7-Me)]K(Ac)[Pen][AEF][2Nal][Thp]K(Ac)N[3Pal][Sar][AEEA][AEEA]-X5; disulfide 2-7) had an IC50 of 0.24 nM.

Compound `CC(=O)NCCCC[C@@H]1NC(=O)[C@H](Cc2c[nH]c3c(C)cccc23)NC(=O)[C@H]([C@@H](C)O)NC(=O)[C@H](CC(N)=O)NC(=O)[C@@H](NC(C)=O)C(C)(C)SSC(C)(C)[C@@H](C(=O)N[C@@H](Cc2ccc(OCCN)cc2)C(=O)N[C@@H](Cc2ccc3ccccc3c2)C(=O)NC2(C(=O)N[C@@H](CCCCNC(C)=O)C(=O)N[C@@H](CC(N)=O)C(=O)N[C@@H](Cc3cccnc3)C(=O)N(C)CC(=O)NCCOCCOCC(=O)NCCOCCOCC(=O)NCCCC[C@H](NC(=O)CCCCCCCCCCCCCCCCC(=O)O)C(=O)O)CCOCC2)NC1=O` [Example 46, MeCO-Pen*-N-T-7MeW-K(Ac)-Pen*-AEF-2Nal-THP-K(Ac)-N-3Pya-Sar-PEG2PEG2eKC18OH-COOH] (Ac-[Pen]NT[Trp(7-Me)]K(Ac)[Pen][AEF][2Nal][Thp]K(Ac)N[3Pal][Sar][AEEA][AEEA]-{εLys(α-Octadecanedioyl)}; disulfide 1-6) had an IC50 of 0.26 nM.

Regarding `CC(=O)NCCCC[C@@H]1NC(=O)[C@H](Cc2c[nH]c3c(C)cccc23)NC(=O)[C@H]([C@@H](C)O)NC(=O)[C@H](CC(N)=O)NC(=O)[C@@H](NC(=O)[C@@H](CCCNC(=N)N)NC(=O)COCCOCCNC(=O)COCCOCCNC(=O)CC[C@H](NC(=O)CCCCCCCCCCCCCCC(=O)O)C(=O)O)C(C)(C)SSC(C)(C)[C@@H](C(=O)N[C@@H](Cc2ccc(OCCN)cc2)C(=O)N[C@@H](Cc2ccc3ccccc3c2)C(=O)NC2(C(=O)N[C@@H](CCCCNC(=O)COCCOCCNC(=O)COCCOCCNC(=O)CC[C@H](NC(=O)CCCCCCCCCCCCCCC(=O)O)C(=O)O)C(=O)N[C@@H](CC(N)=O)C(=O)N[C@@H](Cc3cccnc3)C(=O)N(C)CC(N)=O)CCOCC2)NC1=O` [Example 37, HOC16gEPEG2PEG2-r-Pen*-N-T-7MeW-K(Ac)-Pen*-AEF-2Nal-THP-K(PEG2PEG2gEC16OH)-N-3Pya-Sar-CONH2] ({C16 diacid-γGlu-AEEA-AEEA}-[dR][Pen]NT[Trp(7-Me)]K(Ac)[Pen][AEF][2Nal][Thp]K([AEEA-AEEA-γGlu-C16 diacid])N[3Pal][Sar]-NH2; disulfide 2-7), 0.19 nM corresponded to half-maximal inhibition (IC50).

With `CC(=O)NCCCC[C@@H]1NC(=O)[C@H](Cc2c[nH]c3c(C)cccc23)NC(=O)[C@H]([C@@H](C)O)NC(=O)[C@H](CC(N)=O)NC(=O)[C@@H](NC(=O)[C@@H](CCCNC(=N)N)NC(C)=O)C(C)(C)SSC(C)(C)[C@@H](C(=O)N[C@@H](Cc2ccc(OCCN)cc2)C(=O)N[C@@H](Cc2ccc3ccccc3c2)C(=O)NC2(C(=O)N[C@@H](CCCCNC(C)=O)C(=O)N[C@@H](CC(N)=O)C(=O)N[C@@H](Cc3cccnc3)C(=O)N(C)[C@@H](CCCCNC(=O)COCCOCCNC(=O)COCCOCCNC(=O)CC[C@H](NC(=O)CCCCCCCCCCCCCCCCC(=O)O)C(=O)O)C(N)=O)CCOCC2)NC1=O` [Example 54, MeCO-r-Pen*-N-T-7MeW-K(Ac)-Pen*-AEF-2Nal-THP-K(Ac)-N-3Pya-NMeK(PEG2PEG2gEC18OH)-CONH2] (Ac-[dR][Pen]NT[Trp(7-Me)]K(Ac)[Pen][AEF][2Nal][Thp]K(Ac)N[3Pal][NMeK]([AEEA-AEEA-γGlu-C18 diacid])-NH2; disulfide 2-7), the IC50 amounted to 0.13 nM.

`CC(=O)NCCCC[C@@H]1NC(=O)[C@H](Cc2c[nH]c3c(C)cccc23)NC(=O)[C@H]([C@@H](C)O)NC(=O)[C@H](CC(N)=O)NC(=O)[C@@H](NC(C)=O)C(C)(C)SSC(C)(C)[C@@H](C(=O)N[C@@H](Cc2ccc(OCCN)cc2)C(=O)N[C@@H](Cc2ccc3ccccc3c2)C(=O)NC2(C(=O)N[C@@H](CCCCNC(=O)COCCOCCNC(=O)COCCOCCNC(=O)[C@@H]3CCCN3C(=O)[C@@H]3CCCN3C(=O)[C@@H]3CCCN3C(=O)CC[C@H](NC(=O)CCCCCCCCCCCCCCCCC(=O)O)C(=O)O)C(=O)N[C@@H](CC(N)=O)C(=O)N[C@@H](Cc3cccnc3)C(=O)N(C)CC(N)=O)CCOCC2)NC1=O` [Example 107, MeCO-Pen*-N-T-7MeW-K(Ac)-Pen*-AEF-2Nal-THP-K(PEG2PEG2PPPgEC18OH)-N-3Pya-Sar-CONH2]: the IC50 was determined as 0.09 nM.

Compound `CC(=O)NCCCC[C@@H]1NC(=O)[C@H](Cc2c[nH]c3c(C)cccc23)NC(=O)[C@H]([C@@H](C)O)NC(=O)[C@H](CC(N)=O)NC(=O)[C@@H](NC(C)=O)C(C)(C)SSC(C)(C)[C@@H](C(=O)N[C@@H](Cc2ccc(OCCN)cc2)C(=O)N[C@@H](Cc2ccc3ccccc3c2)C(=O)NC2(C(=O)N[C@@H](CCCCNC(=O)COCCOCCNC(=O)COCCOCCNC(=O)CC[C@H](NC(=O)CCCCCCCCCCCCCCC(=O)O)C(=O)O)C(=O)N[C@@H](CC(N)=O)C(=O)N[C@@H](Cc3cccnc3)C(=O)N(C)CC(N)=O)CCOCC2)NC1=O` [Example 19, MeCO-Pen*-N-T-7MeW-K(Ac)-Pen*-AEF-2Nal-THP-K(PEG2PEG2gEC16OH)-N-3Pya-Sar-CONH2] (Ac-[Pen]NT[Trp(7-Me)]K(Ac)[Pen][AEF][2Nal][Thp]K([AEEA-AEEA-γGlu-C16 diacid])N[3Pal][Sar]-NH2; disulfide 1-6) showed a concentration for half-maximal inhibition (IC50) of 0.037 nM.

Turning to `CC(=O)NCCCC[C@@H]1NC(=O)[C@H](Cc2c[nH]c3c(C)cccc23)NC(=O)[C@H]([C@@H](C)O)NC(=O)[C@H](CC(N)=O)NC(=O)[C@@H](NC(=O)[C@@H](CCCNC(=N)N)NC(C)=O)C(C)(C)SSC(C)(C)[C@@H](C(=O)N[C@@H](Cc2ccc(OCCN)cc2)C(=O)N[C@@H](Cc2ccc3ccccc3c2)C(=O)NC2(C(=O)N[C@@H](CCCCNC(=O)COCCOCCNC(=O)COCCOCCNC(=O)CC[C@@H](NC(=O)CCCCCCCCCCCCCCCCC(=O)O)C(=O)O)C(=O)N[C@@H](CC(N)=O)C(=O)N[C@@H](Cc3cccnc3)C(=O)N(C)CC(N)=O)CCOCC2)NC1=O` [Example 55, MeCO-r-Pen*-N-T-7MeW-K(Ac)-Pen*-AEF-2Nal-THP-K(PEG2PEG2DgEC18OH)-N-3Pya-Sar-CONH2] (Ac-[dR][Pen]NT[Trp(7-Me)]K(Ac)[Pen][AEF][2Nal][Thp]K([AEEA-AEEA-d(γGlu)-C18 diacid])N[3Pal][Sar]-NH2; disulfide 2-7), the 50% inhibitory concentration (IC50) came to 0.13 nM.
